Test results published in patent US4798807A, “Monoclonal antibodies and method for detecting dioxins and dibenzofurans” (priority 1986, dated 1989).

Key:
[1] = tested on: monoclonal antibodies DD-1, DD-3, DD-4, DD-5 and DD-6; assay: Competition ELISA, statements for all antibodies together; assay type: binding, BALB/c and Biozzi mice; conditions: all antibodies
Experimental: (§1) In this case the hybridomas were then screened for their ability to distinguish A-triCDD-BSA and A-triCDD-RSA from BSA and RSA. On the basis of this initial screen about 25 stable, antibody-producing colonies were isolated, subcloned, and frozen. The remaining clones were again screened for their abilities to recognize free TCDD in suspension. Experimentally, on the order of 10-100 nanograms of TCDD in hexane was dried, 0.5 ml of saline with BSA (1 mg/ml) was added and sonificated for 2 hrs. […] Identical procedures were followed for other dioxin isomers. A dilution series in microtiter plate wells was then made with the suspended TCDD, antibody adde, and the competition ELISA completed. Competition ELISA test procedures are discussed in detail in the following reference: Butt, W. R. (1984) "Practical Immunoassay: The State of the Art", Marcel Dekker, Inc., N.Y., N.Y.
(§2) A large part of the success that we have had in characterizing the binding specificities of our monoclonal antibodies comes from having developed a reliable competition ELISA protocol. Our preferred assay starts from stock solutions at 10 ppm in hexane of the various compounds listed in Table I. 10 μl of hexane solution is aliquoted into a small vial, evaporated under a stream of nitrogen gas, and 500 μl of a 1 mg/ml solution of BSA in phosphate buffered saline with 0.1% BSA is added. The vial is capped and placed in an ultrasonic cleaning waterbath for two hours. Two hours of sonification gives a more reproducible assay than does an hour. During the sonification, the hexane appears to evaporate completely, and one is left with an aqueous solution containing the dioxin. Microtiter plates coated with A-triCDD-RSA are blocked with a three percent solution of ovalbumin and a two-fold dilution series of sonificated dioxin-BSA is then made, covering the range 100 ppb-0.1 ppb. In each well of the plate 100 μl of the sonificated dioxin-BSA solution is mixed with n equal volume of antibody. The antibody partitions between the dioxin adsorbed to the BSA, and the A-tri-CDD-RSA on the plate.
(§3) A-TriCDD-RSA was adsorbed onto the surface of the wells of a microtiter plate. The various competitors listed were suspended in saline containing bovine serum albumin (BSA). These solutions were made by sonificating 10 μl of dioxin solution in hexane with 500 μl of saline-BSA. A dilution series of these dioxin-BSA solutions was then made covering the range of 100-0.2 ppb, and placed in the microtiter plate wells. An equal volume of DD-1 monoclonal antibody was then added, and allowed to react for 1 hour. Tne antibody binds either to the A-TriCDD-RSA on the plate or the dioxin in solution. After the hour, the solution phase is removed, the plate washed, and it is reincubated for an hour with peroxidase-conjugated goat-anti-mouse-immunoglobulins. A second washing is then done, and substrate (ABTS) added to the peroxidase. The enzyme-antibody conjugate and substrate function as a "developer", allowing the visualization of the DD-1 bound to the A-triCDD-RSA on the plate. Results are then expressed as a fraction of the response in wells with no competitor. […] At about 20 ppb of 2,3,7,8-TCDD the relative ELISA response is half of control, meaning that half the DD-1 antibody bound to the solution phase dioxin and half bound to the A-triCDD-RSA on the plate. For 1,2,3,7(8)-TCDD, 50% inhibition occurs at about 4 ppb, indicating the DD-1 prefers 1,2,3,7(8)-TCDD to 2,3,7,8-TCDD.
(§4) The FIGURE and Table II show representative competition data using several chlorinated compounds as competitors. From such data, one can determine the concentration required to inhibit antibody binding by 50% (I50). Table II lists the I50 for all compounds tested with the antibodies. In reporting these values, factors of two are about the limit of significance. […] The binding specificities of these antibodies are highly desirable, since they prefer the most toxic of the dioxin and dibenzofuran isomers.

monoclonal antibody DD-3 = assay: Competition ELISA with monoclonal antibody DD-3; assay type: binding, BALB/c mice; conditions: competitor vs monoclonal antibody DD-3; plate coated with A-triCDD-RSA
Experimental: as §1, §2, §3, §4

monoclonal antibody DD-6 = assay: Competition ELISA with monoclonal antibody DD-6; assay type: binding, Biozzi mice; conditions: competitor vs monoclonal antibody DD-6; plate coated with A-triCDD-RSA
Experimental: as §1, §2, §3, §4

monoclonal antibody DD-1 = assay: Competition ELISA with monoclonal antibody DD-1; assay type: binding, Biozzi mice; conditions: for I50 (inhibits antibody binding by 50%): competitor vs monoclonal antibody DD-1, plate coated with A-triCDD-RSA
Experimental: as §1, §2, §3, §4

monoclonal antibody DD-4 = assay: Competition ELISA with monoclonal antibody DD-4; assay type: binding, BALB/c mice; conditions: for I50 (inhibits antibody binding by 50%): competitor vs monoclonal antibody DD-4, plate coated with A-triCDD-RSA
Experimental: as §1, §2, §3, §4

monoclonal antibody DD-5 = assay: Competition ELISA with monoclonal antibody DD-5; assay type: binding, Biozzi mice; conditions: competitor vs monoclonal antibody DD-5; plate coated with A-triCDD-RSA
Experimental: as §1, §2, §3, §4

Clc1cc(Cl)c2c(c1)Oc1cc(Cl)c(Cl)cc1O2 [1,3,7,8-TCDD]
affinity / recognition by all antibodies [1]: highest affinity | I50 (inhibits antibody binding by 50%) (monoclonal antibody DD-3): 0.15 ng | I50 (inhibits antibody binding by 50%) (monoclonal antibody DD-6): 1 ng | I50 (inhibits antibody binding by 50%) (monoclonal antibody DD-1): 0.2 ng | I50 (inhibits antibody binding by 50%) (monoclonal antibody DD-4): > 2 ng

OCC(Cl)(Cl)Cl [2,2,2-Tricholoroethanol, 2,2,2-Tricholoro-ethanol]
I50 (inhibits antibody binding by 50%) (monoclonal antibody DD-5): > 2000 ng | I50 (inhibits antibody binding by 50%) (monoclonal antibody DD-3): > 2000 ng | I50 (inhibits antibody binding by 50%) (monoclonal antibody DD-6): > 2000 ng | I50 (inhibits antibody binding by 50%) (monoclonal antibody DD-1): > 2000 ng | I50 (inhibits antibody binding by 50%) (monoclonal antibody DD-4): > 2000 ng

Clc1ccc(Cl)c(-c2c(Cl)c(Cl)c(Cl)c(Cl)c2Cl)c1Cl [2,2',3,3',4,5,6,6'-Octa-CBP]
I50 (inhibits antibody binding by 50%) (monoclonal antibody DD-5): > 10 ng | I50 (inhibits antibody binding by 50%) (monoclonal antibody DD-3): > 200 ng | I50 (inhibits antibody binding by 50%) (monoclonal antibody DD-6): > 200 ng | I50 (inhibits antibody binding by 50%) (monoclonal antibody DD-1): > 200 ng | I50 (inhibits antibody binding by 50%) (monoclonal antibody DD-4): > 200 ng

Clc1cc(Cl)c(-c2ccccc2Cl)c(Cl)c1 [2,2',4,6-TCBP]
I50 (inhibits antibody binding by 50%) (monoclonal antibody DD-5): > 10 ng | I50 (inhibits antibody binding by 50%) (monoclonal antibody DD-3): > 200 ng | I50 (inhibits antibody binding by 50%) (monoclonal antibody DD-6): > 200 ng | I50 (inhibits antibody binding by 50%) (monoclonal antibody DD-1): > 200 ng | I50 (inhibits antibody binding by 50%) (monoclonal antibody DD-4): > 200 ng

1,2,3,6(7),7(8),8(9)-hexa-CD[
I50 (inhibits antibody binding by 50%) (monoclonal antibody DD-5): > 10 ng | I50 (inhibits antibody binding by 50%) (monoclonal antibody DD-3): > 200 ng | I50 (inhibits antibody binding by 50%) (monoclonal antibody DD-6): > 200 ng | I50 (inhibits antibody binding by 50%) (monoclonal antibody DD-1): > 200 ng | reactivity of DD-4 with competitor (monoclonal antibody DD-4; DD-4): some reactivity | I50 (inhibits antibody binding by 50%) (monoclonal antibody DD-4): > 200 ng

O=C(O)COc1cc(Cl)c(Cl)cc1Cl [2,4,5-Trichlorophenoxyacet, 2,4,5-Trichloro-phenoxyacet]
I50 (inhibits antibody binding by 50%) (monoclonal antibody DD-5): > 2000 ng | I50 (inhibits antibody binding by 50%) (monoclonal antibody DD-3): > 2000 ng | I50 (inhibits antibody binding by 50%) (monoclonal antibody DD-6): 2700 ng | I50 (inhibits antibody binding by 50%) (monoclonal antibody DD-1): 2000 ng | I50 (inhibits antibody binding by 50%) (monoclonal antibody DD-4): > 2000 ng

1,2,3,7,(8)-TCDD
I50 (inhibits antibody binding by 50%) (monoclonal antibody DD-5): 0.3 ng | I50 (inhibits antibody binding by 50%) (monoclonal antibody DD-3): 0.45 ng | I50 (inhibits antibody binding by 50%) (monoclonal antibody DD-6): 0.15 ng | concentration at which 50% inhibition occurs (relative ELISA response half of control) (monoclonal antibody DD-1; FIGURE, DD-1, competitor in saline-BSA, dilution series 100-0.2 ppb): about 4 ppb | I50 (inhibits antibody binding by 50%) (monoclonal antibody DD-1): 0.15 ng | I50 (inhibits antibody binding by 50%) (monoclonal antibody DD-4): 0.3 ng

O=C1C2(Cl)C3(Cl)C4(Cl)C(Cl)(Cl)C5(Cl)C3(Cl)C1(Cl)C5(Cl)C24Cl (centres unmarked) [Kepon]
I50 (inhibits antibody binding by 50%) (monoclonal antibody DD-5): > 2000 ng | I50 (inhibits antibody binding by 50%) (monoclonal antibody DD-3): > 2000 ng | I50 (inhibits antibody binding by 50%) (monoclonal antibody DD-6): > 2000 ng | I50 (inhibits antibody binding by 50%) (monoclonal antibody DD-1): > 2000 ng | I50 (inhibits antibody binding by 50%) (monoclonal antibody DD-4): > 2000 ng

ClC1C(Cl)C(Cl)C(Cl)C(Cl)C1Cl (centres unmarked) [BHC]
I50 (inhibits antibody binding by 50%) (monoclonal antibody DD-5): > 2000 ng | I50 (inhibits antibody binding by 50%) (monoclonal antibody DD-3): > 2000 ng | I50 (inhibits antibody binding by 50%) (monoclonal antibody DD-6): > 2000 ng | I50 (inhibits antibody binding by 50%) (monoclonal antibody DD-1): 300 ng | I50 (inhibits antibody binding by 50%) (monoclonal antibody DD-4): > 2000 ng

O=[N+]([O-])c1cc(Cl)cc(Cl)c1O [2,4-Dichloro-6-nitrophenol, 2,4-Dichloro-6-nitro-phenol]
I50 (inhibits antibody binding by 50%) (monoclonal antibody DD-5): > 2000 ng | I50 (inhibits antibody binding by 50%) (monoclonal antibody DD-3): > 2000 ng | I50 (inhibits antibody binding by 50%) (monoclonal antibody DD-6): > 2000 ng | I50 (inhibits antibody binding by 50%) (monoclonal antibody DD-1): > 2000 ng | I50 (inhibits antibody binding by 50%) (monoclonal antibody DD-4): > 2000 ng

Clc1ccccc1-c1cc(Cl)c(Cl)c(Cl)c1Cl [2,2',3,4,5-Penta-CBP]
I50 (inhibits antibody binding by 50%) (monoclonal antibody DD-5): > 10 ng | I50 (inhibits antibody binding by 50%) (monoclonal antibody DD-3): > 200 ng | I50 (inhibits antibody binding by 50%) (monoclonal antibody DD-6): > 200 ng | I50 (inhibits antibody binding by 50%) (monoclonal antibody DD-1): > 200 ng | I50 (inhibits antibody binding by 50%) (monoclonal antibody DD-4): > 200 ng

ClC1=C(Cl)C2(Cl)C3C4CC(C5OC45)C3C1(Cl)C2(Cl)Cl (centres unmarked) [Endrin]
I50 (inhibits antibody binding by 50%) (monoclonal antibody DD-5): > 2000 ng | I50 (inhibits antibody binding by 50%) (monoclonal antibody DD-3): > 2000 ng | I50 (inhibits antibody binding by 50%) (monoclonal antibody DD-6): > 2000 ng | I50 (inhibits antibody binding by 50%) (monoclonal antibody DD-1): > 2000 ng | I50 (inhibits antibody binding by 50%) (monoclonal antibody DD-4): > 2000 ng
